We go through two molecules from PMC4546427, “Stereoselective Regulation of P-gp Activity by Clausenamide Enantiomers in Caco-2, KB/KBv and Brain Microvessel Endothelial Cells” (PLoS ONE, 2015).

The structures appear in SMILES notation. “And” between values parts separate entries of the source, which are not always exact repeats. Identical values can stand only once.

For data set [1], the system named is P-gp. Briefly: Rh123 accumulation in RBMECs. The note with it: RBMEC; for Increase in Rh123 accumulation relative to verapamil alone: co-treatment CLA 5 μmol/L with verapamil 200 μmol/L; for Percentage of rhodamine 123 accumulation relative to vehicle treatment: positive = increase. The class given is cell-based, rat. The protocol: The experimental programs in this part were approved by the Animal Care and Welfare Committee in our institute. Animals were treated in accordance with national/international guidelines. Primary cultures of brain microvessel endothelial cells were prepared from Sprague—Dawley rats (10–12 days old; Beijing Vital River Company, Beijing, China), as previously described by Qian et al.[21]. The gray matter of animals was taken out and minced into small pieces of approximately 1 mm^3 in ice-cold MEM medium, then dissociated by using 2 mg/mL collagenase containing DNase at a final concentration of 10.5 μg/ml on a shaker for 20 min at 37°C. The cells were pelleted by centrifugation(1000 rpm, 10 min, 4°C) and digested once again according to the above protocol. Then 20% dextran(Mr 40,000) was added to the cells for differential centrifugation at 2000 rpm for 10 min. The cells were re-suspended in complete MEM medium and passed through 74-μm stainless steel mesh. Obtained RBMECs were seeded on 1% (w/v) gelatin-coated culture flasks and cultivated in complete medium (MEM, 20% FBS, 0.9 mg/mL glutamate, 10 mmol/L hepes, 100 ng/mL bFGF, 100 μg/mL heparin sulphate, 100 units/mL penicillin, 100 μg/mL streptomycin sulphate and 50 units/mL amphotericin B) at 37°C and 5% CO2, which was refreshed with complete medium 4 h after seeding to eliminate non-endothelial cells. A final concentration of 2 μg/mL of puromycin was added for 7 h to further purify the cultured cells. The purity of RBMECs was examined by their morphological characteristics using a phase-contrast microscope, and immunocytochemistry of a specific marker, factor VIII-associated antigen, with a rabbit anti-factor VIII polyclonal antibody and FITC-conjugated goat anti-rabbit factor VIII secondary antibody by immunofluorescence microscopy (Olympus IX 70-S1Z2, Olympus Optical CO. Ltd., Japan). The P-gp expression in cultured cells was determined by Western blot analyses using a mouse monoclonal antibody raised against amino acids 1040–1280 of P-gp. When the cultures in the flasks reached 80%–90% confluence, the purified RBMECs were passaged by a brief treatment with trypsin (0.25%, w/v) and EDTA (0.02%, w/v) solution and seeded onto 6-well plates at a density of 5 × 10^5 cells/well; after 2–3 days, incubated with the following agents for 2 h under culture conditions (37°C, 5% CO2 and humidified air): vehicle; (−)CLA (1 or 5 μmol/L); (+)CLA (1 or 5 μmol/L); verapamil (200 μmol/L); or individual enantiomer (1 or 5 μmol/L) plus verapamil (200 μmol/L). In the end, Rh123 (5 μmol/L) was added to the whole wells. The cell incubation, solubilisation and Rh123 accumulation were performed according to the same method for Caco-2 cells described above.
Primary cultures of brain microvessel endothelial cells were prepared from Sprague–Dawley rats (10–12 days old; Beijing Vital River Company, Beijing, China), as previously described by Qian et al.[21]. Animals were anesthetized by intraperitoneal injection of 20% ethyl carbamate at dose of 1g/kg[35], and sterilized by immersion in 75% alcohol solution for 2 min. The gray matter of these animals was taken out and minced into small pieces of approximately 1 mm^3 in ice-cold MEM medium, then dissociated by using 2 mg/mL collagenase containing DNase at a final concentration of 10.5 μg/ml on a shaker for 20 min at 37°C. The cells were pelleted by centrifugation(1000 rpm, 10 min, 4°C) and digested once again according to the above protocol. Then 20% dextran(Mr 40,000) was added to the cells for differential centrifugation at 2000 rpm for 10 min. The cells were re-suspended in complete MEM medium and passed through 74-μm stainless steel mesh. […]

Data set [2] deals with T1, P-gp (Homo sapiens, UniProt P08183).
T1 construct: three cells expressing P-gp, Caco-2, KBv and rat brain microvessel endothelial cells (RBMEC); endogenous in cells; host or cells: Caco-2
T1 sequence (P08183 whole entry): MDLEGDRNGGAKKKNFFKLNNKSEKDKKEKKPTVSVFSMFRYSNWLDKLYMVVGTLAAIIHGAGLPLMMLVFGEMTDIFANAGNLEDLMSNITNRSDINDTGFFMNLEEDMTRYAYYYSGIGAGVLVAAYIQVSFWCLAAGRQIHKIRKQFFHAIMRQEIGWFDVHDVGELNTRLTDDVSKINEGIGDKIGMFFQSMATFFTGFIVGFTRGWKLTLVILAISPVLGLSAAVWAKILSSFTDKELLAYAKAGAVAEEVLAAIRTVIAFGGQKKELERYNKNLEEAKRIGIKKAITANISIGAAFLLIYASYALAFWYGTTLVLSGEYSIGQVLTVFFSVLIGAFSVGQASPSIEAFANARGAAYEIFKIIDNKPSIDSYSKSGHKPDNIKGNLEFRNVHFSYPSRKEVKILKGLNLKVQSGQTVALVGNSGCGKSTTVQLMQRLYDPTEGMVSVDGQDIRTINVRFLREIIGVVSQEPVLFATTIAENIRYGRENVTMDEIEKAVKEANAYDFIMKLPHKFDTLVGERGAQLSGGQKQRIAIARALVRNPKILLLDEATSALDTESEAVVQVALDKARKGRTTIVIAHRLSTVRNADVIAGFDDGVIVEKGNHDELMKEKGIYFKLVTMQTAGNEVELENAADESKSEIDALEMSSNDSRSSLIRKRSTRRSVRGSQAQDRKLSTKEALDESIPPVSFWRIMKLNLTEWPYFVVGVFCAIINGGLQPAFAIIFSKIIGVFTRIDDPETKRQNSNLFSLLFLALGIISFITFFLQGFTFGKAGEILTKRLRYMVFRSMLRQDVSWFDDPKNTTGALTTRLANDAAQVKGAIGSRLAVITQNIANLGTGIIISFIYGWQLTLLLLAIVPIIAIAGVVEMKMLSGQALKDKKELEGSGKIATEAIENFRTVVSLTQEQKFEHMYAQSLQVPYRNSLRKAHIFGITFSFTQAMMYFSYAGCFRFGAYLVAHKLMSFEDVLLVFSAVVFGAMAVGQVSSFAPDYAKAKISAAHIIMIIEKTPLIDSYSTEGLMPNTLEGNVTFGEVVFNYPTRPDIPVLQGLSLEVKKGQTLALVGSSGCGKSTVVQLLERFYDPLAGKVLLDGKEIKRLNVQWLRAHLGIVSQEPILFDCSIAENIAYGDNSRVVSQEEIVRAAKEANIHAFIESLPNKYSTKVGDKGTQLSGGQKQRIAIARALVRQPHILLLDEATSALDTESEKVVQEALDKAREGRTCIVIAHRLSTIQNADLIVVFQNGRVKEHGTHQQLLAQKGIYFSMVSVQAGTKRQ
Briefly: Rh123 accumulation in non-induced KB cells. In kind it is cell-based. The note with it: CLA 5 μmol/L, Rh123 5 μmol/L. The protocol:
KB or its vinblastine-resistance derivative KBv cells[19] were maintained on 6-well plates (5 × 10^5 cells/well) in […] medium with 10% FBS, 100 units/mL penicillin and 100 μg/mL streptomycin sulphate at 37°C with 95% air and 5% CO2. After reaching 80%–90% confluence, the two cells were treated with the following agents, respectively: vehicle; (−)CLA (5 or 10 μmol/L); (+)CLA (5 or 10 μmol/L). Additionally, the KBv cells were treated with verapamil (200 μmol/L); or individual enantiomer (5 or 10 μmol/L) plus verapamil (200 μmol/L). Rh123 (5 μmol/L) were finally added to these wells. Subsequently, cell incubation, solubilisation and Rh123 accumulation were performed by using the same method for Caco-2 cells.

The target of data set [3] is T1, P-gp. Put plainly: Rh123 accumulation in Caco-2 cells. In kind it is cell-based. The note with it: for Percentage of rhodamine 123 accumulation relative to vehicle treatment: positive = increase; for More Rh123 accumulation than verapamil alone: verapamil 200 μmol/L plus CLA 5 μmol/L. As to the method:
Caco-2 cells were seeded onto 6-well plates at a density of 5 × 10^5 cells/well and maintained in MEM supplemented with 10% (v/v) FBS, 1% (v/v) NEAA, 100 units/mL penicillin and 100 μg/mL streptomycin sulphate in a humidified 37°C incubator with 5% CO2. Upon 80%–90% confluence, the cells were provided new complete medium (2 mL/well) and exposed, to vehicle, (−)CLA (1 or 5 μmol/L), (+)CLA (1 or 5 μmol/L), verapamil (200 μmol/L) or individual enantiomer (1 or 5 μmol/L) plus verapamil (200 μmol/L). Then, Rh123 (5 μmol/L) was added to all the wells. After incubation at 37°C and 5% CO2 for 2 h which was designed by the pharmacokinetic parameters of CLA enantiomers, the cells were washed 3 times with 2 mL of ice-cold PBS (pH 7.4), lysed in 400 μL of lysis buffer [50 mmol/L Tris-HCl (pH 8.0), 150 mmol/L NaCl, 0.1% SDS, 100 μg/mL PMSF, 1 μg/mL aprotinin and 1% Nonidet P-40], and then were placed on ice for 40 min. The plates were wrapped in tinfoil. The fluorescence of Rh123 in each well was detected by Spectra Max Gemini XS plate reader (Molecular Devices Corp., Sunnyvale, CA, USA) with excitation and emission wavelengths of 488 nm and 530 nm, respectively. Meanwhile, 10 μL of cell lysates were collected from each well to measure protein concentration using Lowry’s method. Intracellular Rh123 accumulation was normalized by protein concentration (mg/mL) and then was calculated by a standard curve of Rh123 at three concentrations (2.5–10 μmol/L), in parallel with the lysis experiment.

Details of data set [4]: method as in PMID 18655159. The conditions noted are these: cited from earlier work.
[5] abbreviates: CLA 1 μmol/L, Rh123 5 μmol/L, 2 h.
Where [6] appears, read: high dose, CLA 5 μmol/L, Rh123 5 μmol/L, 2 h.
The mark [7] stands for this setting: low dose, CLA 1 μmol/L, Rh123 5 μmol/L, 2 h.

In the case of `CN1C(=O)[C@H](O)[C@@H](c2ccccc2)[C@H]1[C@H](O)c1ccccc1` [(+)CLA, 3R,4S,5S,6R-CLA], the “Decrease of Rh123 accumulation relative to vehicle control” value with P-gp [1] (setting [5]) was determined as 20.0%. For the same molecule, the “Increase in Rh123 accumulation relative to verapamil alone” value in the data set on P-gp [1] was 18.5%. Besides, in the data set with P-gp [1] (co-treatment of verapamil 200 μmol/L with CLA 1 μmol/L), the “Decrease in Rh123 accumulation relative to verapamil alone” value came to 26.5%. Besides, the “Percentage of rhodamine 123 accumulation relative to vehicle treatment” value in the data set on P-gp [1] (setting [6]) was 41.1% and 41.13%; in the data set on P-gp [1] (setting [7]), -20.04%; at P-gp [3] (setting [6]), 58.2% and 58.22%; at P-gp [3] (setting [7]) it was -11.68%. In addition, the “Decrease of Rh123 accumulation vs. control” value on P-gp [2] is 28.2%. For the same molecule, the “Decrease of Rh123 intracellular accumulation relative to vehicle control” value at P-gp [3] (setting [5]) is recorded as 11.7%. The “Reduction of Rh123 intracellular concentration relative to verapamil treatment alone” value on P-gp [3] (co-treatment CLA 1 μmol/L with verapamil 200 μmol/L) came to 29.3%. Further, the “More Rh123 accumulation than verapamil alone” value on P-gp [3] is on record as 23.1%. Besides, the “AUC0–∞ in target tissues (hippocampus, cortex and cerebellum), comparison of enantiomers” value in data set [4] is recorded as “greater values for AUC0–∞ than did (−)CLA”.

Take `CN1C(=O)[C@@H](O)[C@H](c2ccccc2)[C@@H]1[C@@H](O)c1ccccc1` [(−)CLA, 3S, 4R, 5R, 6S-clausenamide]: in the data set with P-gp [1], the “Increase in Rh123 accumulation relative to verapamil alone” value worked out at 24.5%. Further, the “Percentage of rhodamine 123 accumulation relative to vehicle treatment” value in the data set with P-gp [1] (setting [6]) is 58.46%; with P-gp [1] (setting [7]), 20.0% and 20.04%; on P-gp [3] (setting [6]), 63.0% and 62.97%; at P-gp [3] (setting [7]), 28.5% and 28.51%. Also, the “Rh123 accumulation relative to verapamil alone (in words)” value in the data set on P-gp [1] (verapamil 200 μmol/L plus CLA 1 μmol/L) is reported as “slightly increased trend”. Further, the “Increase of Rh123 accumulation vs. control” value on P-gp [2] came to 18.0%. Further, on P-gp [3], the “More Rh123 accumulation than verapamil alone” value came to 24.2%. Also, the “Amount that entered into rat brain, comparison of enantiomers” value in data set [4] (15 min after oral administration, P < 0.001) is reported as “significantly greater than that of the (+)-isomer”.
